“Also recorded” adds a separate entry of the source.
Key:
ERK pathway = assay: activation of the ERK pathway in vivo (striatum, cortex); set-up: species or system mouse; settings: FIG. 23
DARPP-32 = DARPP-32 expression as measure of disease progression; format: in vivo; settings: mouse model of HD, FIG. 24 panels A-C
[1] = weight loss in the mouse model; format: in vivo; settings: 7.5 mg/kg, FIG. 21
STHdh111Q/111Q cells = assay: viability (ATP) assay of cell death in serum deprived STHdh111Q/111Q cells (Prestwick library screen and dose/response); format: cell-based; settings: for loss of viability (ATP levels): dose/response, STHdh111Q/111Q serum deprivation model, FIG. 17 upper panel, n=3/dose; for huntingtin-mediated cell death: screen of the Prestwick Chemical library, cell-based assay of mutant huntingtin-mediated cell death
Method: Viability as measured by ATP levels (normalized to cell number) in cells after 24 h of serum deprivation. Data are show as percent DMSO control (100%). […]
(§1) This library is composed of 1,200 marketed drugs with favorable safety, bioavailability and efficacy properties.

R6/2 mouse model of HD [2] = assay: open field behavior analysis in R6/2 mice; format: in vivo; settings: treated vs control
Text: as §1

R6/2 mouse model of HD [3] = assay: rotarod performance of R6/2 HD mice; format: in vivo; settings: for rotarod performance / rotarod deficit: at 9 weeks of age, 10 mg/kg
R6/2 mouse model of HD [4] = assay: lifespan of R6/2 mice; format: in vivo; settings: 10 mg/kg IP daily, treatment groups compared
Text: This may reflect a specific mechanism of action for pizotifen.

caspase-3/7 = assay: caspase activation assay, STHdh111Q/111Q serum deprivation model; format: cell-based; settings: dose/response, FIG. 17 lower panel, n=3/dose

| caspase-3/7 activation (caspase-3/7) | SMILES | activation of the ERK pathway in cortex (ERK pathway; cortex) | activation of the ERK pathway in striatum (ERK pathway; striatum) | DARPP-32 decrease (measure of disease progression) (DARPP-32) | weight loss [1] | loss of viability (ATP levels) (STHdh111Q/111Q cells) | huntingtin-mediated cell death (STHdh111Q/111Q cells) | open field, general activity level (R6/2 mouse model of HD [2]) | open field, general activity level (R6/2 mouse model of HD [2]; listed as pizotifen) | dose dependence of correction of rotarod (R6/2 mouse model of HD [3]; FIG. 20) | rotarod performance (R6/2 mouse model of HD [3]; R6/2 mice, 10 mg/kg IP daily from 5 weeks of age, after one week of treatment) | rotarod performance / rotarod deficit (R6/2 mouse model of HD [3]; R6/2 mice, 10 mg/kg IP daily from 5 weeks of age) | rotarod performance / rotarod deficit (R6/2 mouse model of HD [3]; R6/2 mice, 10 mg/kg IP daily from 5 weeks of age, listed as pizotifin) | rotarod performance (R6/2 mouse model of HD [3]; R6/2 mice, 10 mg/kg IP daily, 6-week old group, after three days of treatment) | motor deficits (Rotarod performance) (R6/2 mouse model of HD [3]; R6/2 mice, two independent studies) | lifespan (R6/2 mouse model of HD [4]) |
| --- | --- | --- | --- | --- | --- | --- | --- | --- | --- | --- | --- | --- | --- | --- | --- | --- |
| – | CN1CCC(=C2c3ccccc3CCc3sccc32)CC1 [Pizotifen, 4-(1-methyl-4-piperidylidine)-9,10-dihydro-4H-benzo-[4,5]cyclohepta[1,2]-thiophene] | not observed; also recorded: not cortex activation | activation of the ERK pathway in vivo; also recorded: striatal, but not cortex activation | rescued | doesn't improve or worsen weight loss | rescue loss of viability | reproducibly suppress huntingtin-mediated cell death in a dose-dependent manner | general activity level of treated animals was normal | no statistical differences | dose-dependent effect; also recorded: dose dependent response | improved | significant beneficial effects | corrects the rotarod deficit to near wild-type levels | significant improvement | robustly correct motor deficits (i.e. Rotarod performance) in R6/2 to near wild-type levels | no statistical differences |
| rescue | CN1CCN(C2=Nc3ccccc3Oc3ccc(Cl)cc32)CC1 [Loxapine, 2-Chloro-11-(4-methylpiperazin-1-yl)dibenzo[b,f][1,4]oxazepine] | – | – | – | – | rescue loss of viability | reproducibly suppress huntingtin-mediated cell death in a dose-dependent manner | – | – | – | – | – | – | – | – | – |
| – | CN1CCC(=C2c3ccccc3C=Cc3ccccc32)CC1.Cl [Cyproheptadine, 4-(5H-dibenzo[a,d]cyclohepten-5-ylidene)-1-methylpiperidine hydrochloride] | – | – | – | – | rescue loss of viability | reproducibly suppress huntingtin-mediated cell death in a dose-dependent manner | – | – | – | – | – | – | – | – | – |

From patent US20120129834A1, “SEROTONIN RECEPTOR ANTAGONISTS FOR USE IN THE TREATMENT OF HUNTINGTON'S DISEASE” (BUCK INSTITUTE FOR RESEARCH ON AGING, priority 2010, published 2012)
